In patent US9346812B2, “Substituted pyrrolopyrimidine compounds, compositions thereof, and methods of treatment therewith” (Signal Pharmaceutical LLC, priority 2013, dated 2016):

Tested on: CAL51 cell proliferation
Assay: Cell Titer Glo Proliferation Assay (CAL51)
Format: cell-based, human
Conditions: Homo sapiens, CAL-51; CAL51 cell proliferation, 72 h, Cell Titer Glo luminescence; read-out: Act. Level
In short: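 CAL51 triple-negative breast cancer cells in DMEM or RPMI with 10% FBS were treated after overnight culture with serially diluted compound at 0.2% final DMSO. After 72 h, viability was read as CellTiter-Glo luminescence.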

Structure (SMILES) | IC50
COc1cc(C(=O)N2CCCC2)ccc1Nc1nc(OC2CCCC2)c2c(-c3ccc4nc(C)oc4c3)c[nH]c2n1 [Example 249, (4-(4-(cyclopentyloxy)-5-(2-methylbenzo[d]oxazol-6-yl)-7H-pyrrolo[2,3-d]pyrimidin-2-ylamino)-3-methoxyphenyl) (pyrrolidin-1-yl)methanone] | 0.1 to 0.4 µM
CNS(=O)(=O)c1ccc(Nc2nc(OC3CCOCC3)c3c(-c4ccc5nc(C)oc5c4)c[nH]c3n2)c(OC)c1 [Example 219, 3-methoxy-N-methyl-4-(5-(2-methylbenzo[d]oxazol-6-yl)-4-(tetrahydro-2H-pyran-4-yloxy)-7H-pyrrolo[2,3-d]pyrimidin-2-ylamino)benzenesulfonamide] | 0.1 to 0.4 µM
CNC(=O)c1ccc(Nc2nc(OC3CCOCC3)c3c(-c4cnn(C)c4)c[nH]c3n2)c(OC)c1 [Example 184, 3-methoxy-N-methyl-4-(5-(1-methyl-1H-pyrazol-4-yl)-4-(tetrahydro-2H-pyran-4-yloxy)-7H-pyrrolo[2,3-d]pyrimidin-2-ylamino)benzamide] | < 0.1 µM
CCOc1ccc(-c2c[nH]c3nc(Nc4ccc(C(=O)N(C)C)cc4C)nc(OC4CCOCC4)c23)cn1 [Example 109, 4-(5-(6-ethoxypyridin-3-yl)-4-(tetrahydro-2H-pyran-4-yloxy)-7H-pyrrolo[2,3-d]pyrimidin-2-ylamino)-N,N,3-trimethylbenzamide] | < 0.1 µM
Cc1nc2ccc(-c3c[nH]c4nc(Nc5ccc(C(=O)N(C)C)cc5C)nc(O[C@H]5CCOC5)c34)cc2o1 [Example 98, (S)-N,N,3-trimethyl-4-(5-(2-methylbenzo[d]oxazol-6-yl)-4-(tetrahydrofuran-3-yloxy)-7H-pyrrolo[2,3-d]pyrimidin-2-ylamino)benzamide] | < 0.1 µM
CNC(=O)c1cccc(-c2c[nH]c3nc(Nc4ccc(C(=O)NC)cc4C)nc(OC4CCOCC4)c23)c1 [Example 144, N,3-dimethyl-4-(5-(3-(methyl-carbamoyl)phenyl)-4-(tetrahydro-2H-pyran-4-yloxy)-7H-pyrrolo[2,3-d]pyrimidin-2-ylamino)benzamide] | 1 to 10 µM
CNC(=O)c1ccc(Nc2nc(O[C@H]3CCOC3)c3c(-c4ccnn4C)c[nH]c3n2)c(C(C)C)c1 [Example 225, (S)-3-isopropyl-N-methyl-4-(5-(1-methyl-1H-pyrazol-5-yl)-4-(tetrahydrofuran-3-yloxy)-7H-pyrrolo[2,3-d]pyrimidin-2-ylamino)benzamide] | 1 to 10 µM
CNC(=O)c1ccc(Nc2nc(OC3CCOCC3)c3c(-c4ccncn4)c[nH]c3n2)c(OC)c1 [Example 270, 3-methoxy-N-methyl-4-(5-(pyrimidin-4-yl)-4-(tetrahydro-2H-pyran-4-yloxy)-7H-pyrrolo[2,3-d]pyrimidin-2-ylamino)benzamide] | 0.1 to 0.4 µM
CNC(=O)c1ccc(Nc2nc(O[C@H]3CCOC3)c3c(-c4cnn(C)c4)c[nH]c3n2)c(C(C)C)c1 [Example 208, (S)-3-isopropyl-N-methyl-4-(5-(1-methyl-1H-pyrazol-4-yl)-4-(tetahydrofuran-3-yloxy)-7H-pyrrolo[2,3-d]pyrimidin-2-ylamino)benzamide] | 0.1 to 0.4 µM
CNC(=O)c1ccc(Nc2nc(OC3CCCC3)c3c(-c4cccc(OC)c4)c[nH]c3n2)c(OC)c1 [Example 60, 4-(4-(cyclopentyloxy)-5-(3-methoxyphenyl)-7H-pyrrolo[2,3-d]pyrimidin-2-ylamino)-3-methoxy-N-methylbenzamide] | 0.1 to 0.4 µM
C[C@@H](O)c1cccc(-c2c[nH]c3nc(Nc4ccc(C(=O)N(C)C)cc4Cl)nc(NC4CCOCC4)c23)c1 [Example 84, (R)-3-chloro-4-(5-(3-(1-hydroxyethyl)phenyl)-4-(tetrahydro-2H-pyrazin-4-ylamino)-7H-pyrrolo [2,3-d]pyrimidin-2-ylamino)-N,N-dimethylbenzamide] | 0.1 to 0.4 µM
COc1cc(C(=O)NCCF)ccc1Nc1nc(OC2CCCC2)c2c(-c3ccc4nc(C)oc4c3)c[nH]c2n1 [Example 256, 4-(4-(cyclopentyloxy)-5-(2-methylbenzo[d]oxazol-6-yl)-7H-pyrrolo[2,3-d]pyrimidin-2-ylamino)-N-(2-fluoroethyl)-3-methoxybenzamide] | 0.1 to 0.4 µM
CNC(=O)c1ccc(Nc2nc(OC3CCCC3)c3c(-c4cccc(NC(C)=O)c4)c[nH]c3n2)c(OC)c1 [Example 56, 4-(5-(3-acetamidophenyl)-4-(cyclopentyloxy)-7H-pyrrolo[2,3-d]pyrimidin-2-ylamino)-3-methoxy-N-methylbenzamide] | < 0.1 µM
COc1nc(Nc2ccc(C(=O)N(C)C)cc2Cl)nc2[nH]cc(-c3ccc4[nH]c(N)nc4c3)c12 [Example 71, 4-(5-(2-amino-1H-benzo[d]imidazol-5-yl)-4-methoxy-7H-pyrrolo[2,3-d]pyrimidin-2-ylamino)-3-chloro-N,N-dimethylbenzamide] | 0.1 to 0.4 µM
CNC(=O)c1ccc(Nc2nc(OC3CCCC3)c3c(-c4cn[nH]c4)c[nH]c3n2)c(OC)c1 [Example 82, 4-(4-(cyclopentyloxy)-5-(1H-pyrazol-4-yl)-7H-pyrrolo[2,3-d]pyrimidin-2-ylamino)-3-methoxy-N-methylbenzamide] | < 0.1 µM
CNC(=O)c1ccc(Nc2nc(OC3CCOCC3)c3c(-c4ccc5nc(C)sc5c4)c[nH]c3n2)c(OC)c1 [Example 223, 3-methoxy-N-methyl-4-(5-(2-methylbenzo[d]thiazol-6-yl)-4-(tetrahydro-2H-pyran-4-yloxy)-7H-pyrrolo[2,3-d]pyrimidin-2-ylamino)benzamide] | < 0.1 µM
COc1nc(Nc2ccc(C(=O)N(C)C)cc2C)nc2[nH]cc(-c3ccc4nc(C)oc4c3)c12 [Example 73, 4-(4-methoxy-5-(2-methylbenzo[d]oxazol-6-yl)-7H-pyrrolo[2,3-d]pyrimidin-2-ylamino)-N,N,3-trimethylbenzamide] | 1 to 10 µM
CNC(=O)c1ccc(Nc2nc(OC(C)C)c3c(-c4ccnc(OC)c4)c[nH]c3n2)c(OC)c1 [Example 185, 4-(4-isopropoxy-5-(2-methoxypyridin-4-yl)-7H-pyrrolo [2,3-d]pyrimidin-2-ylamino)-3-methoxy-N-methylbenzamide] | < 0.1 µM
CNC(=O)c1ccc(Nc2nc(OC3CCOCC3)c3c(-c4nccn4C)c[nH]c3n2)c(OC)c1 [Example 172, 3-methoxy-N-methyl-4-(5-(1-methyl-1H-imidazol-2-yl)-4-(tetrahydro-2H-pyran-4-yloxy)-7H-pyrrolo[2,3-d]pyrimidin-2-ylamino)benzamide] | 1 to 10 µM
Cc1cc(C(=O)N(C)C)ccc1Nc1nc(OC2CCOCC2)c2c(-c3ccncc3)c[nH]c2n1 [Example 93, N,N,3-trimethyl-4-(5-(pyridin-4-yl)-4-(tetrahydro-2H-pyran-4-yloxy)-7H-pyrrolo[2,3-d]pyrimidin-2-ylamino)benzamide] | < 0.1 µM
Cc1nc2ccc(-c3c[nH]c4nc(Nc5cn(C)nc5C)nc(OC5CCCC5)c34)cc2o1 [Example 307, 4-(cyclopentyloxy)-N-(1,3-dimethyl-1H-pyrazol-4-yl)-5-(2-methylbenzo[d]oxazol-6-yl)-7H-pyrrolo[2,3-d]pyrimidin-2-amine] | < 0.1 µM
CNC(=O)c1ccc(-c2c[nH]c3nc(Nc4ccc(C(=O)NC5COC5)cc4OC)nc(OC4CCCC4)c23)cc1 [Example 305, 4-(4-(cyclopentyloxy)-5-(4-(methylcarbamoyl)phenyl)-7H-pyrrolo[2,3-d]pyrimidin-2-ylamino)-3-methoxy-N-(oxetan-3-yl)benzamide] | < 0.1 µM
COc1cc(C(=O)N2CCOCC2)ccc1Nc1nc(OC2CCCC2)c2c(-c3ccc4nc(C)oc4c3)c[nH]c2n1 [Example 96, (4-(4-(cyclopentyloxy)-5-(2-methylbenzo[d]oxazol-6-yl)-7H-pyrrolo[2,3-d]pyrimidin-2-ylamino)-3-methoxyphenyl)(morpholino) methanone] | 0.4 to 1 µM
COc1cc(C(=O)NCC(C)(C)O)ccc1Nc1nc(OC2CCCC2)c2c(-c3ccc4nc(C)oc4c3)c[nH]c2n1 [Example 285, 4-(4-(cyclopentyloxy)-5-(2-methylbenzo[d]oxazol-6-yl)-7H-pyrrolo[2,3-d]pyrimidin-2-ylamino)-N-(2-hydroxy-2-methylpropyl)-3-methoxybenzamide] | 0.1 to 0.4 µM
CCOc1ccc(-c2c[nH]c3nc(Nc4ccc(C(=O)NC)cc4OC)nc(OC(C)C)c23)cn1 [Example 196, 4-(5-(6-ethoxypyridin-3-yl)-4-isopropoxy-7H-pyrrolo[2,3-d]pyrimidin-2-ylamino)-3-methoxy-N-methylbenzamide] | 0.1 to 0.4 µM
CNC(=O)c1ccc(Nc2nc(OC3CCOCC3)c3c(-c4ccnc(N(C)C)c4)c[nH]c3n2)c(OC)c1 [Example 131, 4-(5-(2-(dimethylamino)pyridin-4-yl)-4-(tetrahydro-2H-pyran-4-yloxy)-7H-pyrrolo[2,3-d]pyrimidin-2-ylamino)-3-methoxy-N-methylbenzamide] | < 0.1 µM
COc1cc(-c2cnn(C)c2)ccc1Nc1nc(OC2CCCC2)c2c(-c3ccc4nc(C)oc4c3)c[nH]c2n1 [Example 227, 4-(cyclopentyloxy)-N-(2-methoxy-4-(1-methyl-1H-pyrazol-4-yl)phenyl)-5-(2-methylbenzo[d]oxazol-6-yl)-7H-pyrrolo[2,3-d] pyrimidin-2-amine] | 0.1 to 0.4 µM
COc1cc(C(=O)N2CCC(O)CC2)ccc1Nc1nc(OC2CCCC2)c2c(-c3ccc4nc(C)oc4c3)c[nH]c2n1 [Example 231, (4-(4-(cyclopentyloxy)-5-(2-methylbenzo[d]oxazol-6-yl)-7H-pyrrolo[2,3-d]pyrimidin-2-ylamino)-3-methoxyphenyl)(4-hydroxy-piperidin-1-yl)methanone] | < 0.1 µM
COc1cc(S(C)(=O)=O)c(F)cc1Nc1nc(OC2CCCC2)c2c(-c3ccc4nc(C)oc4c3)c[nH]c2n1 [Example 261, 4-(cyclopentyloxy)-N-(5-fluoro-2-methoxy-4-(methylsulfonyl)phenyl)-5-(2-methylbenzo[d]oxazol-6-yl)-7H-pyrrolo[2,3-d] pyrimidin-2-amine] | 0.1 to 0.4 µM
CNC(=O)c1cccc(-c2c[nH]c3nc(Nc4ccc(C(=O)NC)cc4OC)nc(OC4CCCC4)c23)c1 [Example 59, 4-(4-(cyclopentyloxy)-5-(3-(methylcarbamoyl)phenyl)-7H-pyrrolo[2,3-d]pyrimidin-2-ylamino)-3-methoxy-N-methylbenzamide] | 0.1 to 0.4 µM
